{"source": "patent US7700792B2", "about": "“Highly active lysophosphatidic acid and method of screening therewith” (Ono Pharmaceutical Co., Ltd., priority 2003, dated 2010)", "key": {"Male CD (SD) IGS rats": {"system": "Male CD (SD) IGS rats", "assay": "Increasing urethral pressure measuring system under anesthesia of rat with urethane", "type": "in vivo", "conditions": "i.v., urethane-anesthetized rat", "from_the_text": "Male CD (SD) IGS rats (Charles River Japan Inc., 8-9 week-old in use) were anesthetized by subcutaneous administration of urethane (1.2 g/kg). After incision of cervical median, jugular catheter for administration of drug and arterial catheter for measurement of blood pressure were inserted. After incising of hypogastrium median, urethra was tied off in the vicinity of pubic bone. Urethra catheter was inserted into urethra by incision of dome of urinary bladder and fixed by ligation at the bladder neck. Urethra catheter was connected to the pressure tranducer and urethral pressure was measured. Subsequently, urethral pressure was adjusted about 20 mmHg and left until stabilizing (for about 20 minutes)."}, "isolated urethra of rat": {"system": "isolated urethra of rat", "assay": "Contraction-measuring system using an isolated urethra of rat", "conditions": "Magnus tube, urethra strips, control high concentration KCl", "experimental": "After sacrificing female or male CD (SD) IGS rats (Charles River Japan Inc., 8-9 week-old in use) by blowing heads and exsanguinating from carotid artery and jugular vein, urethra under pubis was isolated carefully and soaked in Krebs-Henseleit solution (112 mM NaCl, 5.9 mM KCl, 2.0 mM CaCl2, 1.2 mM MgCl2, 1.2 mM NaH2PO4, 25.0 mM NaHCO3, 11.5 mM Glucose) immediately. Urethra part was cut from isolated sample, and was dissected flatly and subsequently was cut parallel to circular muscle. Thus, 2-3 strips of sample that are 3-4 mm long by 2-3 mm wide were made from one animal.\nThe made samples were suspended in the Magnus tube (volume: 10 mL) filled by Krebs-Henseleit solution (vented by 37±1° C., mixed gas [95% O2+5% CO2]). The samples were added about 0.5 g tension and stabilized for 60 min, and subsequently the contractile activity was recorded on recorder (lincarcoder WR3320: GRAPHTEC CORP.) via a pressure amplifier (AP-621G: Nihon Kohden Ltd) from Force displacement transducer (FD pick-up TB-611T; Nihon Kohden Ltd).\nThe contractile reaction of control was given by stimulation of high concentration KCl solution (solution replaced all NaCl with KCl)."}}}
{"smiles": "CCCCC/C=C\\C/C=C\\CCCCCCCC(=O)OC[C@@H](O)COP(=O)([O-])[O-].[Na+].[Na+]", "note": "[1-linoleoyl(18:2)-LPA, D(+)-sn-1-o-linoleoyl-glyceryl-3-phosphate. sodium salt, reference compound]", "values": [{"measurement": "increase of urethral pressure", "setting": "Male CD (SD) IGS rats; 0.3 mg/kg", "value": 0.6, "unit": "mmHg"}, {"measurement": "increase of urethral pressure", "setting": "Male CD (SD) IGS rats; 1.0 mg/kg", "value": 0.8, "unit": "mmHg"}]}
{"smiles": "CCCCC[C@@H]1O[C@@H]1C[C@H]1O[C@H]1CCCCCCCC(=O)OC[C@H](O)COP(=O)(O)O", "note": "[Example 1-1]", "values": [{"measurement": "contracting effect on the isolated urethra of rat", "setting": "isolated urethra of rat", "value": "contracting effect"}, {"measurement": "increase of urethral pressure", "setting": "Male CD (SD) IGS rats; 0.3 mg/kg", "value": 5.4, "unit": "mmHg"}, {"measurement": "increase of urethral pressure", "setting": "Male CD (SD) IGS rats; 1.0 mg/kg", "value": 8.5, "unit": "mmHg"}]}
